Converted amounts (≈) assume the structure as drawn.
What was measured:
[1] = target: T1, Trace amine-associated receptor 1 (Homo sapiens, UniProt Q96RJ0); assay: Agonist activity at Gq-mediated TAAR1 activation (unknown origin) expressed in HEK293 cells pretreated with coelenterazine for 30 mins followed by compound addition by BRET assay; assay type: functional, cell-based
T1 sequence (Q96RJ0 whole entry): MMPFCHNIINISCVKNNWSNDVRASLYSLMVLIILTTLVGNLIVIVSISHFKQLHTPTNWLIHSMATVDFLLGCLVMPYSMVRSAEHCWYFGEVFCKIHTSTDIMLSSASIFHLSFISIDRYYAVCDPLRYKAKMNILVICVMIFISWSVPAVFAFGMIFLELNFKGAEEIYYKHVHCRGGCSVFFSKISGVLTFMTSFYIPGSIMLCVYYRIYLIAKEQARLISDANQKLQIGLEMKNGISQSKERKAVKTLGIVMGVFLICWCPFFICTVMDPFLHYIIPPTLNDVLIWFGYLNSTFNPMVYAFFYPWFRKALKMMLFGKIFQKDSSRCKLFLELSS

[2] = target: T1, Trace amine-associated receptor 1; assay: Agonist activity at Gs-mediated TAAR1 activation (unknown origin) expressed in HEK293 cells pretreated with coelenterazine for 30 mins followed by compound addition by BRET assay; assay type: functional, cell-based
[3] = Toxicity in C57BL/6J mouse assessed as induction of catalepsy at 3 to 10 mg/kg, po measured at 30 to 60 mins; assay type: organism-based; details: in vivo, dose lower 3 mg/kg, time lower 30 min, dose upper 10 mg/kg, time upper 60 min
[4] = Toxicity in C57BL/6J mouse assessed as reduction in baseline locomotion at 3 mg/kg, po; assay type: organism-based; details: in vivo
[5] = Solubility of the compound at pH 2; assay type: physicochemical; details: buffer
[6] = Solubility of the compound at pH 7; assay type: physicochemical; details: buffer
[7] = Solubility of the compound at pH 7.4; assay type: physicochemical; details: buffer
Mus musculus = species on record: Mus musculus; details: C57BL/6J, dose 0.3-3 mg/kg, route po, time 70.0 min
[8] = Half-life in Sprague-Dawley rat at 2 mg/kg, iv measured upto 8 hrs by LC-MS/MS analysis; assay type: ADME, organism-based; details: in vivo
[9] = Half-life in Sprague-Dawley rat at 10 mg/kg, po measured upto 8 hrs by LC-MS/MS analysis; assay type: ADME, organism-based; details: in vivo
[10] = Tmax in Sprague-Dawley rat at 2 mg/kg, iv measured upto 8 hrs by LC-MS/MS analysis; assay type: ADME, organism-based; details: in vivo
[11] = Tmax in Sprague-Dawley rat at 10 mg/kg, po measured upto 8 hrs by LC-MS/MS analysis; assay type: ADME, organism-based; details: in vivo
[12] = Cmax in Sprague-Dawley rat at 2 mg/kg, iv measured upto 8 hrs by LC-MS/MS analysis; assay type: ADME, organism-based; details: in vivo
[13] = Cmax in Sprague-Dawley rat at 10 mg/kg, po measured upto 8 hrs by LC-MS/MS analysis; assay type: ADME, organism-based; details: in vivo
[14] = AUC(0 to t) in Sprague-Dawley rat at 2 mg/kg, iv measured upto 8 hrs by LC-MS/MS analysis; assay type: ADME, organism-based; details: in vivo
[15] = AUC(0 to t) in Sprague-Dawley rat at 10 mg/kg, po measured upto 8 hrs by LC-MS/MS analysis; assay type: ADME, organism-based; details: in vivo
[16] = AUC(0 to infinity) in Sprague-Dawley rat at 2 mg/kg, iv measured upto 8 hrs by LC-MS/MS analysis; assay type: ADME, organism-based; details: in vivo
[17] = AUC(0 to infinity) in Sprague-Dawley rat at 10 mg/kg, po measured upto 8 hrs by LC-MS/MS analysis; assay type: ADME, organism-based; details: in vivo
[18] = Clearance in Sprague-Dawley rat at 2 mg/kg, iv measured upto 8 hrs by LC-MS/MS analysis; assay type: ADME, organism-based; details: in vivo
[19] = Oral bioavailability in Sprague-Dawley rat at 10 mg/kg measured upto 8 hrs by LC-MS/MS analysis; assay type: ADME, organism-based; details: in vivo
[20] = Acute toxicity in Kunming mouse assessed as change in body weight at 500 mg/kg, po measured after 7 days; assay type: organism-based; details: in vivo, 168 h, time 7 day
[21] = Acute toxicity in Kunming mouse assessed as abnormal behavior at 50 mg/kg, po administered every 2 days for 14 days; assay type: organism-based; details: in vivo, 336 h, time 14 day
[22] = Acute toxicity in Kunming mouse assessed as change in body weight at 50 mg/kg, po administered every 2 days for 14 days; assay type: organism-based; details: in vivo, 336 h, time 14 day
[23] = Toxicity in Kunming mouse assessed as heart damage at 50 mg/kg, po administered every 2 days for 14 days by H and E staining based assay; assay type: organism-based; details: in vivo, 336 h, time 14 day
[24] = Toxicity in Kunming mouse assessed as liver damage at 50 mg/kg, po administered every 2 days for 14 days by H and E staining based assay; assay type: organism-based; details: in vivo, 336 h, time 14 day
[25] = Toxicity in Kunming mouse assessed as spleen damage at 50 mg/kg, po administered every 2 days for 14 days by H and E staining based assay; assay type: organism-based; details: in vivo, 336 h, time 14 day
[26] = Toxicity in Kunming mouse assessed as lung damage at 50 mg/kg, po administered every 2 days for 14 days by H and E staining based assay; assay type: organism-based; details: in vivo, 336 h, time 14 day
[27] = Toxicity in Kunming mouse assessed as kidney damage at 50 mg/kg, po administered every 2 days for 14 days by H and E staining based assay; assay type: organism-based; details: in vivo, 336 h, time 14 day

Nc1ccc(-c2cccc(F)c2)cc1
EC50 [1]: 28.9 nM

Nc1ccc(-c2ccccc2)cc1 [BIPHENYL-4-AMINE]
EC50 [1]: 342 nM

NCCc1ccc(Br)cc1
EC50 [2]: 9.85 nM | EC50 [1]: 66.5 nM

CN(C)Cc1ccc(-c2cccc(Cl)c2)cc1
Activity [3]: Non-Toxic

C[C@@H](N)C(=O)Nc1ccc(-c2ccco2)cc1
Activity [3]: Non-Toxic | Activity [4]: Non-Toxic | solubility [5]: 390 µg/mL (≈ 1690 µM) | solubility [6]: 710 µg/mL (≈ 3080 µM) | solubility [7]: 540 µg/mL (≈ 2350 µM)

NCc1ccc(-c2ccccc2)cc1
EC50 [2]: 301 nM

CN(C)Cc1ccc(-c2ccccc2)cc1
EC50 [2]: 9.46 nM | Activity [3]: Non-Toxic | inhibition (Mus musculus): Dose-Dependent Effect

C[C@@H](N)C(=O)Nc1ccc(-c2ccco2)cc1.Cl
half-life [8]: 1.23 h | half-life [9]: 2.31 h | Tmax [10]: 1.8 min | Tmax [11]: 1.5 h | Cmax [12]: 292 ng/mL | Cmax [13]: 154 ng/mL | AUC(0-t) at 8 h [14]: 323 ng·h/mL | AUC(0-t) at 8 h [15]: 627 ng·h/mL | AUC(0-inf) [16]: 327 ng·h/mL | AUC(0-inf) [17]: 634 ng·h/mL | clearance [18]: 104 mL/min/kg | bioavailability [19]: 39% | solubility [5]: 8640 µg/mL | solubility [6]: 7500 µg/mL | solubility [7]: 3110 µg/mL | Activity [20]: Non-Toxic | Activity [21]: Non-Toxic | Activity [22]: Non-Toxic | Activity [23]: Non-Toxic | Activity [24]: Non-Toxic | Activity [25]: Non-Toxic | Activity [26]: Non-Toxic | Activity [27]: Non-Toxic

NCCc1ccc(-c2cccc(F)c2)cc1
EC50 [2]: 1.17 nM
